{"source": "paper PMC7367283", "about": "“A PIP2 substitute mediates voltage sensor-pore coupling in KCNQ activation” (Communications Biology, 2020)", "molecular_target": "KCNQ2/KCNQ3* (Homo sapiens, UniProt O43525+O43526, A315T)", "assay": "Two-electrode voltage clamp of KCNQ2+KCNQ3* in Xenopus oocytes", "format": "cell-based", "settings": "Q2/Q3*, individual oocytes", "description": "KCNQ2 and KCNQ3 form a channel complex that carries M currents in neurons. Similar to KCNQ1, these KCNQ subunits require PIP2 for voltage-dependent activation. KCNQ2 alone can express functional channels in Xenopus oocytes, while KCNQ3 alone cannot. However, a single mutation, A315T, allows KCNQ3 to functionally express in Xenopus oocytes. We examined the effects of CP1 on KCNQ2, KCNQ3 with mutation A315T (denoted as KCNQ3*), KCNQ2+KCNQ3, and KCNQ2+KCNQ3* expressed in Xenopus oocytes (Fig. 5a). Similar to the effects on KCNQ1 and IKs channels, CP1 changed the amplitude of currents (Fig. 5b), shifted the G–V relation to more negative voltages (Fig. 5c), and slowed the deactivation kinetics (Fig. 5d) for all of these KCNQ channels. These CP1 effects were relatively small on KCNQ2 as compared with those on other KCNQ channels, and the effects on KCNQ2/KCNQ3* and KCNQ2/KCNQ3 complexes were closer to those on KCNQ2 alone.\nFig. 5 Subtype selectivity of CP1 on KCNQ channels. a Current traces of KCNQ channels as indicated in the absence and the presence of 10 µM CP1. […]\nThe whole-oocyte ionic currents were recorded with a GeneClamp 500B amplifier (Axon Instruments, CA) or iTEV90 amplifier (HEKA, Germany) and then sampled at 1 kHz and low-pass-filtered at 2 kHz. […] The Kir1.1 current was recorded with a high K^+ bath solution containing (in mM) 96 KCl, 4 NaCl, 1 CaCl2, 2 MgCl2, and 10 HEPES, pH 7.3–7.4. The HCN4 current was recorded in ND66 solution containing (in mM) 66 NaCl, 32 KCl, 1.8 CaCl2, 1 MgCl2, and 5 HEPES, pH 7.6. All the other potassium channels were recorded in ND96 solution. The currents of CaV1.2 channel were recorded in 40 mM Ba^2+ bath solution containing (in mM) 40 Ba(OH)2, 50 TEA-OH, 2 KOH, and 5 HEPES, adjusted to pH 7.4 with methanesulfonic acid. […] The HCN4 currents were recorded by a test pulse between −30 and −140 mV in 10-mV step from a holding potential of −30 mV. […]", "note": "Values joined by “and” are separate entries in the source; they are usually repeats but may differ in a detail not shown here. Identical values can stand only once."}
{"smiles": "O=S(=O)([O-])Oc1c(-c2sc3c(ccc4cccc(Cl)c43)c2OS(=O)(=O)[O-])[nH]c2ccc(Br)cc12.[Na+].[Na+]", "note": "[CP1, DISODIUM 5-BROMO-2-[9-CHLORO-3-(SULFONATOOXY) NAPHTHO [1,2-B] THIEN-2-YL]-1H-INDOL-3-YL SULFATE]", "values": [{"measurement": "outward current (Icp1/Ictrl)", "setting": "10 µM CP1, at −10 mV", "result": "1.1575 and 0.9892 and 1.0474 and 1.088"}, {"measurement": "∆V1/2", "setting": "10 µM CP1", "result": "15.9435 mV and 15.3238 mV and 21.3532 mV and 15.8237 mV"}, {"measurement": "τ deact at -120 mV", "setting": "10 µM CP1 treated", "result": "0.0814 s and 0.0836 s and 0.1825 s and 0.1031 s and 0.1951 s"}]}
